Experimental data taken from patent publication US20230277553A1, “THERAPEUTIC COMPOSITION OF CURE-PRO COMPOUNDS FOR TARGETED DEGRADATION OF BET DOMAIN PROTEINS, AND METHODS OF MAKING AND USAGE” (CORNELL UNIVERSITY, priority 2020, published 2023).
Entries after “also recorded” stand apart in the source; their conditions may differ.

Assays:
Format in all cases: cell-based
BRD4 [1] = biological target: T1, BRD4 (Homo sapiens, UniProt O60885); test: Summary of BRD4 degradation by CURE-PRO pairs, estimated from Western Blot or WES (Proteinsimple); design: endogenous in cells; conditions: for Degradation of BRD4 in combination with MDM2 ligand [drawing 423] / Degradation of BRD4 in combination with MDM2 ligand [drawing 424]: Table 5, aryl-boronic acid-containing MDM2 ligand; for Degradation of BRD4 in combination with MDM2 ligand [drawing 423]: first drawing (8310); for Degradation of BRD4 in combination with MDM2 ligand [drawing 424]: second drawing (8312)
Text: A black check mark indicates efficacy of 30% to 70% or higher protein degradation.

BRD4 [2] = biological target: T1, BRD4; test: CURE-PRO-mediated BRD4 degradation with MDM2 ligands, WES (ProteinSimple), HCT116 cells; design: endogenous in cells; conditions: HCT116, 24 h, WES; for BRD4 degradation, in combination with MDM2 ligand 8310: 1:1 with 8310, 10 μM; for BRD4 degradation, in combination with MDM2 ligand 8312: 1:1 with 8312, 10 μM
Method: All cell lines were purchased from ATCC or DSMZ and grown at 37° C. with 5% CO2. Human HeLa cells were cultured in complete growth medium (Dulbecco's modified Eagle's medium (DMEM) supplemented with 10% FBS); MCF7 cells were cultured in complete growth medium (Dulbecco's modified Eagle's medium (DMEM) supplemented with 10% FBS and 0.01 mg/ml human recombinant insulin (Sigma Aldrich); Namalwa and MOLM-13 cells were cultured in complete growth medium (RPMI 1640 medium supplemented with 10% FBS); MV-4-11 were cultured in complete growth medium (Iscove's Modified Dulbecco's medium, supplemented with 10% FBS); HCT116 cells were cultured in complete growth medium (McCoy's 5a Medium supplemented with 10% FBS). For cellular degradation of BRD4 studies, cells were seeded in a 12-well plate at 70-80% confluency, allowed to attach overnight, and incubated with the indicated compounds for the indicated time. When indicated, a 15-minute pretreatment with 10 μM pomalidomide, 10 μM VHL298, 10 μM Nutlin3a, 1 μM MG-132 or 1 μM Carfilzomib was performed before the addition of CURE-PROs. For washout studies, after CURE-PRO treatment, media was aspirated and incubated with complete medium for the indicated time before lysis.
WES Simple analysis was performed on WES system (ProteinSimple-Biotechne) according to the manufacturer's instructions. Total protein concentrations of cell lysates were determined by the Pierce BCA kit (Thermo Fisher). 3 μL of 0.3 μg/μL of the protein lysate was loaded onto a 12- to 230-kDa WES assay plate (ProteinSimple) where 300 nL sample was withdrawn through a capillary, subjected to electrophoretic separation of proteins by size, and followed by the simultaneous, HRP-based detection of proteins using the Anti-Rabbit Detection Module (Proteinsimple: #DM-001). The electropherograms were checked then the automatic peak detection was manually corrected if it was required.
(§1) HCT116 cells (3×10^6) were treated for 24 hours with the compounds solubilized in DMSO. Compounds were added at 1 μM-10 μM each. Standardized protein samples were electrophoresed and imaged as described in the WES ProteinSimple section above. FIGS. 59, 60, and 61 depict the concentration-dependence of CURE-PRO-mediated BRD4 degradation using MDM2 ligands.
as §1, with “62” for “59, 60,”, “63” for “61”
HCT116 cells (3×10^6) were treated for 24 hours with the compounds solubilized in DMSO. CURE-PRO monomers were added at 10 μM each and the proteasomal inhibitors at 1 μM. Standardized protein samples were electrophoresed and imaged as described in the WES ProteinSimple section above. FIG. 68 depicts the dependence of the proteasome for CURE-PRO-mediated BRD4 degradation.

MV-4-11 cells = test: CellTiter-Glo cell viability, MV-4-11 cells
Method: CellTiter-Glo® 2.0 Cell Viability Assay (Promega) was carried out following the manufacturer's recommendations. Cells were seeded at a density of 1000 cells/well in a white 96 well plates (Corning, #3917) in a total volume of 100 μl with respective monomers, combinations of BRD ligands together with E3 ligase ligands or vehicle control treatment. After a 72 h incubation, 100 ul of the CellTiter-Glo® substrate was added per well and luminescence was read on a Spectramax M5 (Molecular Devices). Dose-response curves were generated using Graphpad Prism software.
MV-4-11 cells (5×104) were treated for 24 hours with the sample compounds solubilized in DMSO. The compounds were added at 1 nM-100 μM each. Cellular viability was determined using the CellTiter-Glo® Luminescent Cell Viability Assay (Promega) described above. FIGS. 19-22 depict the CURE-PRO-mediated loss of cellular viability for BRD monomers (JQ1 derivatives comprising of catechol linkers), and CRBN ligand, 8049 (pomalidomide derivatives comprising boronic acid linkers) combined in a 1:1 ratio.
MV-4-11 cells (1×104) were treated for 72 hours with the compounds solubilized in DMSO. Compounds were added at 10 nM-100 μM each. Cellular viability was determined using the CellTiter-Glo® Luminescent Cell Viability Assay (Promega) described above. FIGS. 47-54 depict the CURE-PRO-mediated loss of cellular viability for BRD monomers (JQ1 derivatives comprising of boronic acid linkers), and CRBN ligands, 8046, 8047 and 8066 (pomalidomide derivatives comprising diol linkers) combined in a 1:1 ratio.

| SMILES | Degradation of BRD4 in combination with CRBN ligand [drawing 407] (BRD4 [1]; Table 4, aryl-boronic acid-containing CRBN ligand, first drawing (by text: 8048)) | Degradation of BRD4 in combination with MDM2 ligand [drawing 423] (BRD4 [1]) | Degradation of BRD4 in combination with MDM2 ligand [drawing 424] (BRD4 [1]) | BRD4 degradation, in combination with MDM2 ligand 8310 (BRD4 [2]) | BRD4 degradation, in combination with MDM2 ligand 8312 (BRD4 [2]) | Loss of cellular viability / toxicity, co-dosed with CRBN ligand 8049 (MV-4-11 cells; MV-4-11, 24 hours, 1:1 with 8049, 1 nM-100 μM each) | Degradation of BRD4 in combination with CRBN ligand [drawing 372] (BRD4 [1]; Table 1, CRBN ligand, third drawing (8066)) | Degradation of BRD4 in combination with CRBN ligand [drawing 370] (BRD4 [1]; Table 1, aromatic 1,2-diol- or hindered cis-1,2-diol-containing CRBN ligand, first drawing (8046)) | Degradation of BRD4 in combination with VHL ligand [drawing 397] (BRD4 [1]; Table 3, aromatic 1,2-diol-containing VHL ligand, second drawing (8305)) | Loss of cellular viability / toxicity, cotreated with cereblon ligands 8046, 8047 and 8066 vs monomers alone (MV-4-11 cells; MV-4-11, 72 hours, 1:1, 10 nM-100 μM each) | BRD4 degradation, in combination with MDM2 ligand 8313 (BRD4 [2]; 1:1 with 8313, 1-10 μM each) | BRD4 degradation, in combination with MDM2 ligand 8314 (BRD4 [2]; 1:1 with 8314, 1-10 μM each) |
| --- | --- | --- | --- | --- | --- | --- | --- | --- | --- | --- | --- | --- |
| CCNC(=O)C[C@@H]1N=C(c2ccc(Cl)cc2)c2cc(OCCOCCNC(=O)c3cccc(O)c3O)ccc2-n2c(C)nnc21 [BRD-N39, N-(2-(2-(((4S)-6-(4-chlorophenyl)-4-(2-(ethylamino)-2-oxoethyl)-1-methyl-4H-benzo[f][1,2,4]triazolo[4,3-a][1,4]diazepin-8-yl)oxy)ethoxy)ethyl)-2,3-dihydroxybenzamide] | ✓ (A black check mark indicates efficacy of 30% to 70% or higher protein degradation) | ✓ (A black check mark indicates efficacy of 30% to 70% or higher protein degradation) | ✓ (A black check mark indicates efficacy of 30% to 70% or higher protein degradation) | caused BRD4 degradation | caused BRD4 degradation | – | – | – | – | – | – | – |
| CCNC(=O)C[C@@H]1N=C(c2ccc(Cl)cc2)c2cc(OCCNC(=O)c3cccc(O)c3O)ccc2-n2c(C)nnc21 [BRD-N25] | – | ✓ (A black check mark indicates efficacy of 30% to 70% or higher protein degradation) | ✓ (A black check mark indicates efficacy of 30% to 70% or higher protein degradation) | caused BRD4 degradation; also recorded: marked BRD4 degradation | caused BRD4 degradation | concentration-dependent loss in cellular viability; also recorded: increased toxicity | – | – | – | – | – | – |
| CCNC(=O)C[C@@H]1N=C(c2ccc(Cl)cc2)c2cc(OCCCCC(=O)Nc3cccc(B(O)O)c3)ccc2-n2c(C)nnc21 [BRD-E20, (3-(5-(((4S)-6-(4-chlorophenyl)-4-(2-(ethylamino)-2-oxoethyl)-1-methyl-4H-benzo[f][1,2,4]triazolo[4,3-a][1,4]diazepin-8-yl)oxy)pentanamido)phenyl)boronic acid] | – | – | – | – | – | – | ✓ (A black check mark indicates efficacy of 30% to 70% or higher protein degradation) | ✓ (A black check mark indicates efficacy of 30% to 70% or higher protein degradation) | ✓ (A black check mark indicates efficacy of 30% to 70% or higher protein degradation) | reduced viability; also recorded: increased toxicity | had no effect on BRD4 protein levels | caused partial loss of the BRD4 protein; also recorded: Degradation is observed |
